Measurements reported in paper PMC4444023 (PLoS ONE, 2015).
Entries after “also recorded” stand apart in the source; their conditions may differ.

What was measured:
human nSMase2 [1] = molecular target: T1, human nSMase2 (Homo sapiens, UniProt Q9NY59); experiment: Fluorescence (Amplex red coupled) nSMase2 activity assay; type: biochemical; set-up: Full length human nSMase2 cDNA with a C-terminal Flag tag; crude cell lysate used as enzyme
T1 sequence (Q9NY59 1-655): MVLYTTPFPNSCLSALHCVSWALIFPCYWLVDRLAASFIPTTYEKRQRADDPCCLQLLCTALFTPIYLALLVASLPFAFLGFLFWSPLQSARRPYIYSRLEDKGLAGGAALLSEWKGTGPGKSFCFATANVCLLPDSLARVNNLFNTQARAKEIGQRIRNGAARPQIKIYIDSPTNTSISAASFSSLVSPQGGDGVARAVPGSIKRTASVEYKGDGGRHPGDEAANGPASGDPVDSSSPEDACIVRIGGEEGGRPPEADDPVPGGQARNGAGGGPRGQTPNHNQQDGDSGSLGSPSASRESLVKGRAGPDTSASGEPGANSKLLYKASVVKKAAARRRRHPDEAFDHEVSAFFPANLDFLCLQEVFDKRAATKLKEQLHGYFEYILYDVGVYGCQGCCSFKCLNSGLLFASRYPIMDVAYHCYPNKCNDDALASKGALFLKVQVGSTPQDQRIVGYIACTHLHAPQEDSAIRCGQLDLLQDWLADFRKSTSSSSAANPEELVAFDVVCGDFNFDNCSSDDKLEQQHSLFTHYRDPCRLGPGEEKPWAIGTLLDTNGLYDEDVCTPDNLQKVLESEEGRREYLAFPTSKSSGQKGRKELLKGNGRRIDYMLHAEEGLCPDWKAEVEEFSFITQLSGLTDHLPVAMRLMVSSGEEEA
Procedure: The production of the latter was coupled to a dephosphorylation reaction catalyzed by alkaline phosphatase (4 U/ml) to produce choline, followed by oxidation of choline by choline oxidase (0.1 U/ml) to produce betaine and H2O2, which in the presence of horseradish peroxidase (HRP, 1U/ml) and 50 μM Amplex red, generates the fluorescent molecule resorufin (Life Technologies). Substrate stock solution was prepared in 2% Triton X-100, vortexed and sonicated for 30 min. Reactions were carried out for 1 h at 37°C in 100 mM Tris-HCl pH 7.4, 10 mM MgCl2, 0.2% Triton X-100 and the generation of the fluorescent product was monitored by measuring relative florescence units (RFU) with excitation at 530 nm and emission at 590 nm (Fig 1). This assay was optimized for 384-well format (50 μl total volume per well) based on linearity of the enzymatic activity with respect to time, as well as substrate and enzyme concentrations. […] This fluorescence assay was used for compound screening and IC50 value determinations, based on duplicate eight-point dose response curves.

[2] = test system: rat primary cortical neurons; experiment: Lipid extraction and ceramide measurements (LC-MS/MS); type: cell-based; conditions: rat primary neurons, TNF-α
Procedure: Primary cortical neurons were prepared from embryonic day 18 Sprague-Dawley rats following previously described methods. […] A crude lipid extract from cortical neurons was obtained using a modified Bligh and Dyer procedure. Ceramide C12:0 (Avanti Polar Lipids) was included as an internal standard. The organic layers were dried in a nitrogen evaporator (Organomation Associates Inc.) and stored at -80°C. Dried organic layers were resuspended in methanol just prior to analysis. The detection and quantitation of individual ceramide species was performed on a high-performance liquid chromatography (HPLC) coupled electrospray ionization triple quadrupole mass spectrometer (API3000, AB Sciex Inc.) using settings similar to those described in previous studies. Samples were handled by a CTC PAL autosampler (LEAP Technologies Inc.) and injected into an HPLC (PerkinElmer) equipped with a reverse phase C18 column (Phenomex). […] The eluted sample was injected into the electrospray ionization source and detection of each ceramide species was conducted by multiple reaction monitoring. Spectral analysis was conducted using MultiQuant (AB Sciex Inc.), individually validated and normalized to the internal standard. Final data for each ceramide species in counts per second was expressed as the ratio of analyte/internal standard.

B. cereus nSMase = B. cereus nSMase (Bacillus cereus, UniProt P11889); experiment: Inhibition of bacterial nSMase (not shown); type: biochemical
Chain of B. cereus nSMase (P11889 28-333): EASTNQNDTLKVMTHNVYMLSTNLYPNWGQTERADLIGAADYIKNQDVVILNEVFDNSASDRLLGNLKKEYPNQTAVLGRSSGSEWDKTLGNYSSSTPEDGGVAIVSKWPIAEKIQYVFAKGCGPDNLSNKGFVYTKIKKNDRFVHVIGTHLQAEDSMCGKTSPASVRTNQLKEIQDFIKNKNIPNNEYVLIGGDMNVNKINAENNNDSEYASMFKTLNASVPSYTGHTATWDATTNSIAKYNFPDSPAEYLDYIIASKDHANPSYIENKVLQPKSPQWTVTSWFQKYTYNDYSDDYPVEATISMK

SIRT2 = conditions: NAD-dependent deacetylase activity; cited from earlier work
human nSMase2 [3] = molecular target: T1, human nSMase2; experiment: Time dependence study of cambinol inhibitory activity; type: biochemical; set-up: Full length human nSMase2 cDNA with a C-terminal Flag tag; host or cells: HEK293, stably transfected; crude cell lysate used as enzyme; conditions: pre-incubation up to 2 h
Procedure: ^bCambinol IC50 values were determined from 8-points dose response curves run in duplicate.

macrophages = conditions: cited from earlier work
aSMase = molecular target: aSMase; set-up: method as in earlier work; conditions: ref personal communication with Drs. Marc Ferrer and Wei Zheng, NCATS; cited from earlier work

O=c1[nH]c(=S)[nH]c(-c2ccccc2)c1Cc1c(O)ccc2ccccc12 [Cambinol, cambinol]
1/V (human nSMase2 [1]; 1/[SM] 0.002 µM^-1, 2 µM Cambinol): 0.00052 h/RFU
1/V (human nSMase2 [1]; 1/[SM] 0.002 µM^-1, 3 µM Cambinol): 0.00066 h/RFU
1/V (human nSMase2 [1]; 1/[SM] 0.002 µM^-1, 5 µM Cambinol): 0.00102 h/RFU
1/V (human nSMase2 [1]; 1/[SM] 0.003 µM^-1, 2 µM Cambinol): 0.00062 h/RFU
1/V (human nSMase2 [1]; 1/[SM] 0.003 µM^-1, 3 µM Cambinol): 0.00078 h/RFU
1/V (human nSMase2 [1]; 1/[SM] 0.003 µM^-1, 5 µM Cambinol): 0.00109 h/RFU
1/V (human nSMase2 [1]; 1/[SM] 0.006 µM^-1, 2 µM Cambinol): 0.00075 h/RFU
1/V (human nSMase2 [1]; 1/[SM] 0.006 µM^-1, 3 µM Cambinol): 0.00095 h/RFU
1/V (human nSMase2 [1]; 1/[SM] 0.006 µM^-1, 5 µM Cambinol): 0.00128 h/RFU
1/V (human nSMase2 [1]; 1/[SM] 0.013 µM^-1, 2 µM Cambinol): 0.00096 h/RFU
1/V (human nSMase2 [1]; 1/[SM] 0.013 µM^-1, 3 µM Cambinol): 0.00118 h/RFU
1/V (human nSMase2 [1]; 1/[SM] 0.013 µM^-1, 5 µM Cambinol): 0.00146 h/RFU
V (human nSMase2 [1]; [SM] 19.5 µM, 2 µM Cambinol): 641 RFU/h
V (human nSMase2 [1]; [SM] 19.5 µM, 3 µM Cambinol): 571 RFU/h
V (human nSMase2 [1]; [SM] 19.5 µM, 5 µM Cambinol): 500 RFU/h
V (human nSMase2 [1]; [SM] 39.0 µM, 2 µM Cambinol): 752 RFU/h
V (human nSMase2 [1]; [SM] 39.0 µM, 3 µM Cambinol): 663 RFU/h
V (human nSMase2 [1]; [SM] 39.0 µM, 5 µM Cambinol): 567 RFU/h
V (human nSMase2 [1]; [SM] 78.0 µM, 2 µM Cambinol): 1042 RFU/h
V (human nSMase2 [1]; [SM] 78.0 µM, 3 µM Cambinol): 849 RFU/h
V (human nSMase2 [1]; [SM] 78.0 µM, 5 µM Cambinol): 684 RFU/h
V (human nSMase2 [1]; [SM] 156.0 µM, 2 µM Cambinol): 1336 RFU/h
V (human nSMase2 [1]; [SM] 156.0 µM, 3 µM Cambinol): 1055 RFU/h
V (human nSMase2 [1]; [SM] 156.0 µM, 5 µM Cambinol): 784 RFU/h
V (human nSMase2 [1]; [SM] 313.0 µM, 2 µM Cambinol): 1621 RFU/h
V (human nSMase2 [1]; [SM] 313.0 µM, 3 µM Cambinol): 1288 RFU/h
V (human nSMase2 [1]; [SM] 313.0 µM, 5 µM Cambinol): 922 RFU/h
mode of inhibition (MOI) (human nSMase2 [1]; human nSMase2): uncompetitive
effect on cytokine-induced increase of ceramide (words) [2]: decreased
effect on cytokine-induced increase of ceramide (words) ([2]; listed as cambinol): dose dependently block; also recorded: blocked
IC50 (B. cereus nSMase): 5 µM
IC50 (SIRT2): 59 µM
time dependence of inhibition (human nSMase2 [3]): did not change; also recorded: independent of pre-incubation time
TNF-α and IL-6 release (macrophages): effectively inhibited
IC50 (aSMase): > 10 µM
